Values joined by “and” are separate entries in the source; they are usually repeats but may differ in a detail not shown here. Equal values may be shown once.

Here are results for three compounds from patent publication US9481743B2, “Polyelectrolyte polymers, their manufacture and use” (priority 2013, dated 2016).

Data set [1] is described as follows: Solubility/miscibility tests. In kind it is physicochemical. The method, then:
Approximately 5-10 mg of compound was added to a test tube followed by the addition of 1.5 mL of solvent followed by 5 seconds of gentle stirring. If dissolution was not observed immediately, the mixture was further stirred and sonicated for 30 seconds. Material was deemed soluble if the resulting solution was free of particulate and haze, determined by visual inspection. […] If solutions remained hazy, they were referred to as emulsion mixtures.

A short description of data set [2]: Slow heating within a mass spectrometer, perfluoro-tert-butanol fragment m/z 197 monitored. The format is physicochemical. To be noted: heated slowly within a mass spectrometer. The text has this: Compound [3b]Cl was heated slowly within a mass spectrometer and the fragments of perfluoro-tert-butanol was monitored.
Data set [3] is described as follows: Thermal degradation by thermal gravimetric analysis (TGA). To be noted: 10° C./min, nitrogen. In kind it is physicochemical. The method, then:
Nuclear Magnetic Resonance (NMR) spectroscopy was conducted on a Varian INOVA 400 MHz spectrometer (^1H, 400.09 MHz, ^31P{^1H} 161.82 MHz, ^19F, 376.15 MHz). All ^1H spectra were referenced relative to tetramethyl silane (CDCl3; ^1H δH=7.26 ppm and CO(CD3)2; ^1H δH=2.04). The chemical shifts for ^31P{H} NMR spectroscopy were referenced using an external standard (85% H3PO4; δP=0). The chemical shifts for ^19F{^1H} NMR spectroscopy were also referenced using an external standard (trifluorotoluene; δF=−63.9 ppm). Infrared spectra were recorded using a Bruker Tensor 27 spectrometer using attenuated total reflectance mode (ATR) using a ZnSe crystal. […] Water contact angles (WCA) were measured using a Kruss DSA100 Drop Shape Analyzer and analyzed using Drop Shape Analysis. Thermal degradation was determined using Thermal Gravimetric Analysis (TGA) on a Q600 SDT TA instrument. […] Glass transition temperatures were determined using Differential Scanning calorimetry (DSC) on a DSC Q20 TA instrument. […] Melting points of all HFPS were determined using a Gallenkamp Variable Heater in air. Mass spectrometry was recorded in both positive and negative ion modes using electrospray ionization (ESI) Micromass LCT spectrometer. […] The positive or negative secondary ions were extracted from the sample surface, mass separated and detected via a reflectron-type time-of-flight analyser. […]

For data set [4] the following is noted: of the protonated form; cited from earlier work.
Data set [5] concerns Escherichia coli. Put plainly: Antibacterial drop-test of UV-cured films. In kind it is cell-based. The method, then: (§1) A desired amount of 2-hydrox-2-methy-1-phenyl-propanone (5 wt %), diacrylate crosslinker (EB 130, a cyclic aliphatic diacrylate) and the acrylate-appended phosphonium salt were weighed and combined in screw top vials. The mixture was then insonated at 45° C. for 20 min until the solutions were free of particulate and haze. After cooling to room temperature, the solutions were cast on polyester films and irradiated with UV light three times. Leached films were treated with H2O (Milli-Q) in a wrist action shaker for 4 hours, followed by washing with H2O (2×10 mL) and air drying. Both leached and unleached films were subjected to the antibacterial test (below).
(§2) The antibacterial activities of the charged surfaces against Gram-negative bacteria Escherichia coli […] were studied using the antibacterial drop-test. E. coli precultured in 15 mL of nutrient broth (Difco™ BD) at 37° C. for 24 h, was washed by centrifuging at 4000 rpm for 10 min. After removing the supernatant, the cells were washed with phosphate buffered saline (PBS) twice and re-suspended and diluted to approximately 10^6 colony forming units (CFU)/mL in PBS solution. The samples were placed in sterilized Petri dishes. 100 μL of PBS solution with bacteria was added dropwise onto sterilized surfaces until completely covered. The petri dishes were sealed and placed in an incubator at 37° C. with the humidity 46%. After 4 hr, the bacteria were washed from the surface of the sample by using 10 mL PBS in the sterilized Petri dish. From this solution, 100 μL was spread onto solid plate count agar (Difco™ BD). After incubation for 24 h at 37° C., the number of surviving bacterial colonies on the Petri dishes were counted. The results after multiplication with the dilution factor were expressed as CFU per mL. The above experiments were carried out in triplicate for each sample. The percentage of killed bacteria was calculated as [(CFU of initial bacterial suspension−CFUs following surface contact)/CFU of initial bacterial suspension]×100.

Data set [6] concerns S. Aureus. The data set can be described thus: Antibacterial drop-test of UV-cured films. In kind it is cell-based. The method, then:
as §1, §2

A short description of data set [7]: Density of surface phosphonium cations by UV-vis (fluorescein dye). The format is physicochemical. The method, then:
Characterization by FTIR-ATR spectroscopy confirmed the conversion of acrylate functionality post polymerization. Percent cure was determined using a literature procedure. The intensity of the acrylate vibration at 810 cm^−1 was compared to the C═O vibration at 1750 cm^−1 both before and after irradiation. […] The density of surface phosphonium cations was determined by UV-vis spectroscopy as described in a literature procedure.
Characterization by FTIR-ATR spectroscopy confirmed the conversion of acrylate functionality post polymerization. […] The density of surface phosphonium cations was determined by UV-vis spectroscopy as described in a literature procedure^23. […] This assumes a 1:1 ratio of positive and negative charge on the surface.
Before deposition of [Au25L18]^−, the number of accessible charges on the PPF was quantified. A known protocol utilizing fluorescein dye was employed to determine the value for the above system and to relate this quantity back to the percentage of phosphonium monomers that were included in the original formulation.^23 This procedure is commonly used as a characterization technique for films containing surface-bound quaternary salts. […] At 30 wt %, a dramatic increase in the number of quaternary charges was observed (1.5×10^15 cations/cm^2). Increasing the salt content to 37.5 and 47.5 wt % yielded surfaces with 8.2×10^15 and 1.4×10^16 cations/cm^2, respectively. […] Use of low melting phosphonium salts permits formation of a formulation having low viscosity despite the high ion content, allowing for ease of handling and deposition. Use of high melting point organic salts in a similar fashion generates formulations with relatively high viscosities or significant solubility issues, which manifest themselves in poor films. Advantages of the phosphonium-based acrylate monomer in the fabrication of the charged surfaces can thus be seen.

Turning to `C=Cc1ccc(C[P+](CCCOC(C(F)(F)F)(C(F)(F)F)C(F)(F)F)(CCCOC(C(F)(F)F)(C(F)(F)F)C(F)(F)F)CCCOC(C(F)(F)F)(C(F)(F)F)C(F)(F)F)cc1.[Cl-]` [[3b]Cl], the results for the “Solubility (in words)” value in data set [1] (chloroform), in data set [1] (dichloromethane) and in data set [1] (most solvents including diethyl ether) were “soluble”, “soluble” and “high solubility”, respectively. For the same compound, in data set [2], the “Time at which signal at m/z=197 was at a maximum” value worked out at 889 s. The “Time until fragment at m/z=197 was observed” value in data set [2] amounted to 532 s. Further, the “Decomposition Point” value in data set [3] was 198 °C and 197* ° C.

Consider `OC(C(F)(F)F)(C(F)(F)F)C(F)(F)F` [perfluoro-tert-butoxide], for which, in data set [4], the pKa was 5.2.

In the case of `C=CC(=O)OCCC[P+](CCCC)(CCCC)CCCC.[Br-]` [[4]Br, (3-(acryloyloxy)propyl)tributylphosphonium bromide], the “% E. coli killed (unleached)” value is recorded as “No” in data set [5] (25% [4]Br in EB 130 film), 30 ± 5% in data set [5] (30% [4]Br in EB 130 film), 46 ± 7% in data set [5] (37.5% [4]Br in EB 130 film) and 82 ± 9% in data set [5] (47.5% [4]Br in EB 130 film). Besides, the “% S. Aureus killed (unleached)” value in data set [6] (30% [4]Br in EB 130 film) and in data set [6] (47.5% [4]Br in EB 130 film) was 100 ± 2% each time. Further, in data set [6] (47.5% [4]Br in EB 130 film, leached), the “% S. Aureus killed (leached)” value was determined as 100 ± 2%. In addition, the Charge/Unit area in data set [7] (25% [4]Br film) is on record as 0 ×10^x Y^+/cm^2; in data set [7] (30% [4]Br film) it was 1.47 × 10^15 ×10^x Y^+/cm^2; in data set [7] (37.5% [4]Br film), 8.18 × 10^15 ×10^x Y^+/cm^2; in data set [7] (47.5% [4]Br film), 1.42 × 10^16 ×10^x Y^+/cm^2.
